We go through 29 compounds from patent publication US20220348558A1, “INHIBITORS OF ENCEPHALITIC ALPHAVIRUSES” (priority 2019, published 2022).

What is called EC50 is the concentration that produces a half-maximal response.

One experiment concerns VEEV TC83. Kind of experiment: microbe, parasite or virus in culture. Type of experiment: cell-based. The following applies: Venezuelan equine encephalitis virus, Vero 76, 48 h, read-out: VEEV TC83 EC50 nM.
The subject of another experiment is WEEV California. Description: microbe, parasite or virus in culture. The following applies: Western equine encephalitis virus, Vero 76, 48 h, read-out: WEEV California EC50 nM. The class given is cell-based.

With `COc1ccc(-n2c(C3CCCN3C)nc3c(-c4ccc(C)nc4)cc(C#N)cc3c2=O)cc1F` (stereo not shown) [Example 111, 3-(3-fluoro-4-methoxyphenyl)-8-(6-methylpyridin-3-yl)-2-(1-methylpyrrolidin-2-yl)-4-oxo-3,4-dihydroquinazoline-6-carbonitrile], the half-maximal effective concentration (EC50) in the experiment on VEEV TC83 and in the experiment with WEEV California was 1 to 50 nM throughout.

Regarding `COc1ccc(-n2c([C@H]3CCN(C)C3)nc3c(C)cc([N+](=O)[O-])cc3c2=O)cc1F` [Example 66, (S)-3-(3-fluoro-4-methoxyphenyl)-8-methyl-2-(1-methylpyrrolidin-3-yl)-6-nitroquinazolin-4 (3H)-one], the 50% effective concentration (EC50) in the experiment on VEEV TC83 and in the experiment on WEEV California was 151 to 500 nM in each case.

Take `COc1ccc(-n2c([C@@H]3CCCN3)nc3c(F)cc(C#N)cc3c2=O)cc1` [Example 79, (S)-8-fluoro-3-(4-methoxyphenyl)-4-oxo-2-(pyrrolidin-2-yl)-3,4-dihydroquinazoline-6-carbonitrile]: the 50% effective concentration (EC50) in the experiment on VEEV TC83 and in the experiment with WEEV California was 501 to 1000 nM throughout.

Consider `Cc1ccc(-c2cc(C#N)cc3c(=O)n(-c4ccc(N(C)C)c(F)c4)c(C4CCCN4)nc23)cn1` (stereo not shown) [Example 145, 3-(4-(Dimethylamino)-3-fluorophenyl)-8-(6-methylpyridin-3-yl)-4-oxo-2-(pyrrolidin-2-yl)-3,4-dihydroquinazoline-6-carbonitrile], for which the EC50 in the experiment with VEEV TC83 fell in the range of 1 to 50 nM; in the experiment with WEEV California it was 151 to 500 nM.

As for `COc1c(F)cc(-n2c(C34CC(CN3)C4)nc3c(-c4ccc(C)nc4)cc(C#N)cc3c2=O)cc1F` [Example 175, 2-(2-azabicyclo[2.1.1]hexan-1-yl)-3-(3,5-difluoro-4-methoxyphenyl)-8-(6-methylpyridin-3-yl)-4-oxo-3,4-dihydroquinazoline-6-carbonitrile], the results for the concentration for a half-maximal effect (EC50) in the experiment on VEEV TC83 and in the experiment on WEEV California were 1 to 50 nM and 51 to 150 nM, respectively.

With `COc1ccc(-n2c([C@@H]3CCNC3)nc3c(C)cc([N+](=O)[O-])cc3c2=O)cc1F` [Example 67, (R)-3-(3-fluoro-4-methoxyphenyl)-8-methyl-6-nitro-2-(pyrrolidin-3-yl) quinazolin-4 (3H)-one], the concentration giving a half-maximal response (EC50) in the experiment with VEEV TC83 and with WEEV California was 151 to 500 nM in each case.

In the case of `COc1ccc(-n2c([C@@H](C)N(C)C)nc3ccc([N+](=O)[O-])cc3c2=O)cc1` [Example 209, (R)-2-(1-(dimethylamino)ethyl)-3-(4-methoxyphenyl)-6-nitroquinazolin-4 (3H)-one], the EC50 with VEEV TC83 lay in the range of 51 to 150 nM; in the experiment with WEEV California, 151 to 500 nM.

As to `N#Cc1ccc(-n2c([C@H]3CCCN3)nc3ccc([N+](=O)[O-])cc3c2=O)cc1` [Example 20, (R)-4-(6-nitro-4-oxo-2-(pyrrolidin-2-yl)quinazolin-3 (4H)-yl)benzonitrile], the EC50 was in the range of 1 to 50 nM in the experiment with VEEV TC83 and 51 to 150 nM in the experiment on WEEV California.

Take `COc1ccc(-n2c([C@@H]3CCCN3C)nc3c(C)cc([N+](=O)[O-])cc3c2=O)cc1F` [Example 70, (S)-3-(3-fluoro-4-methoxyphenyl)-8-methyl-2-(1-methylpyrrolidin-2-yl)-6-nitroquinazolin-4 (3H)-one]: the EC50 in the experiment on VEEV TC83 and in the experiment with WEEV California was 1 to 50 nM throughout.

On to `COCCOc1ccc(-c2cc(C#N)cc3c(=O)n(-c4ccc(OC)c(F)c4)c(C4CCCN4)nc23)cc1` (stereo not shown) [Example 154, 3-(3-Fluoro-4-methoxyphenyl)-8-(4-(2-methoxyethoxy)phenyl)-4-oxo-2-(pyrrolidin-2-yl)-3,4-dihydroquinazoline-6-carbonitrile], for which the EC50 in the experiment on VEEV TC83 and in the experiment with WEEV California was 1 to 50 nM in each case.

Take `COc1ccc(-n2c([C@@H]3CCCN3)nc3c(-c4cccnc4)cc(C#N)cc3c2=O)cc1F` [Example 108, (S)-3-(3-fluoro-4-methoxyphenyl)-4-oxo-8-(pyridin-3-yl)-2-(pyrrolidin-2-yl)-3,4-dihydroquinazoline-6-carbonitrile]: the EC50 in the experiment on VEEV TC83 and with WEEV California was 1 to 50 nM each time.

Consider `COc1ccc(-n2c([C@H]3CCCN3)nc3c(-c4ccnc(F)c4)cc([N+](=O)[O-])cc3c2=O)cc1F` [Example 90, (R)-3-(3-fluoro-4-methoxyphenyl)-8-(2-fluoropyridin-4-yl)-6-nitro-2-(pyrrolidin-2-yl) quinazolin-4 (3H)-one], for which the EC50 in the experiment on VEEV TC83 and in the experiment with WEEV California was 1 to 50 nM throughout.

As to `COc1c(F)cc(-n2c([C@H]3CCCN3)nc3c(-c4ccc(C(F)(F)F)nc4)cc(C#N)cc3c2=O)cc1F` [Example 118, (R)-3-(3,5-difluoro-4-methoxyphenyl)-4-oxo-2-(pyrrolidin-2-yl)-8-(6-(trifluoromethyl)pyridin-3-yl)-3,4-dihydroquinazoline-6-carbonitrile], the half-maximal effective concentration (EC50) with VEEV TC83 is 1 to 50 nM; with WEEV California, 51 to 150 nM.

Turning to `COc1ccc(-n2c(C3CCCN3)nc3c(-c4ccnc(C)c4)cc(C#N)cc3c2=O)cc1F` (stereo not shown) [Example 138, 3-(3-fluoro-4-methoxyphenyl)-8-(2-methylpyridin-4-yl)-4-oxo-2-(pyrrolidin-2-yl)-3,4-dihydroquinazoline-6-carbonitrile], the half-maximal effective concentration (EC50) in the experiment with VEEV TC83 and with WEEV California was 1 to 50 nM each time.

As for `COc1ccc(-n2c([C@H]3CCCN3)nc3ccc([N+](=O)[O-])cc3c2=O)cc1F` [Example 24, (R)-3-(3-fluoro-4-methoxyphenyl)-6-nitro-2-(pyrrolidin-2-yl) quinazolin-4 (3H)-one], the concentration giving a half-maximal response (EC50) in the experiment on VEEV TC83 and in the experiment on WEEV California was 1 to 50 nM throughout.

Consider `COc1ccc(-c2cc(C#N)cc3c(=O)n(-c4ccc(OC)c(F)c4)c(C4CCCN4)nc23)cc1` (stereo not shown) [Example 147, 3-(3-Fluoro-4-methoxyphenyl)-8-(4-methoxyphenyl)-4-oxo-2-(pyrrolidin-2-yl)-3,4-dihydroquinazoline-6-carbonitrile], for which the EC50 in the experiment with VEEV TC83 and with WEEV California was 1 to 50 nM in each case.

Regarding `Cc1ccc(-n2c([C@H]3CCCN3)nc3ccc([N+](=O)[O-])cc3c2=O)cc1` [Example 37, (R)-6-nitro-2-(pyrrolidin-2-yl)-3-(p-tolyl)quinazolin-4 (3H)-one], the 50% effective concentration (EC50) with VEEV TC83 lay within 1 to 50 nM; with WEEV California it was 501 to 1000 nM.

With `COc1ccc(-n2c([C@H]3CCCN3)nc3c(F)c(F)c(F)cc3c2=O)cc1` [Example 16, (R)-6,7,8-trifluoro-3-(4-methoxyphenyl)-2-(pyrrolidin-2-yl)quinazolin-4 (3H)-one], the results for the half-maximal effective concentration (EC50) with VEEV TC83 and with WEEV California were 501 to 1000 nM and more than 1000 nM, respectively.

Turning to `COc1ccc(-n2c([C@H]3CCC(=O)N3)nc3c(-c4ccc(C)nc4)cc(C#N)cc3c2=O)cc1F` [Example 121, (R)-3-(3-fluoro-4-methoxyphenyl)-8-(6-methylpyridin-3-yl)-4-oxo-2-(5-oxopyrrolidin-2-yl)-3,4-dihydroquinazoline-6-carbonitrile], the 50% effective concentration (EC50) in the experiment with VEEV TC83 and in the experiment with WEEV California was more than 1000 nM each time.

Consider `O=c1c2cc([N+](=O)[O-])ccc2nc([C@H]2CCCN2)n1-c1ccc(Cl)cc1` [Example 23, (R)-3-(4-chlorophenyl)-6-nitro-2-(pyrrolidin-2-yl) quinazolin-4 (3H)-one], for which the EC50 with VEEV TC83 and in the experiment with WEEV California was 1 to 50 nM throughout.

With `COc1ccc(-n2c([C@H]3CCCN3C3COC3)nc3ccc([N+](=O)[O-])cc3c2=O)cc1` [Example 11, (R)-3-(4-methoxyphenyl)-6-nitro-2-(1-(oxetan-3-yl)pyrrolidin-2-yl) quinazolin-4 (3H)-one], the half-maximal effective concentration (EC50) in the experiment with VEEV TC83 lay in the range of 51 to 150 nM; in the experiment on WEEV California, 501 to 1000 nM.

For `COc1ccc(-n2c([C@H]3CCCN3)nc3c(C(F)(F)F)cc(C#N)cc3c2=O)cc1F` [Example 76, (R)-3-(3-fluoro-4-methoxyphenyl)-4-oxo-2-(pyrrolidin-2-yl)-8-(trifluoromethyl)-3,4-dihydroquinazoline-6-carbonitrile], the half-maximal effective concentration (EC50) in the experiment on VEEV TC83 and in the experiment on WEEV California was 1 to 50 nM each time.

`O=c1c2cc([N+](=O)[O-])ccc2nc([C@H]2CCCN2)n1-c1ccc(OC(F)(F)F)cc1` [Example 44, (R)-6-nitro-2-(pyrrolidin-2-yl)-3-(4-(trifluoromethoxy)phenyl)quinazolin-4 (3H)-one]: the EC50 with VEEV TC83 and in the experiment with WEEV California was more than 1000 nM each time.

Regarding `COc1cccc(-c2cc(C#N)cc3c(=O)n(-c4ccc(OC)c(F)c4)c(C4CCCN4)nc23)c1` (stereo not shown) [Example 148, 3-(3-Fluoro-4-methoxyphenyl)-8-(3-methoxyphenyl)-4-oxo-2-(pyrrolidin-2-yl)-3,4-dihydroquinazoline-6-carbonitrile], the EC50 in the experiment with VEEV TC83 and in the experiment on WEEV California was 1 to 50 nM each time.

Regarding `COc1ccc(-n2c([C@H]3CCCN3)nc3ccc(F)c(F)c3c2=O)cc1` [Example 28, (R)-5,6-difluoro-3-(4-methoxyphenyl)-2-(pyrrolidin-2-yl) quinazolin-4 (3H)-one], the half-maximal effective concentration (EC50) was 151 to 500 nM with VEEV TC83 and more than 1000 nM in the experiment on WEEV California.

As to `O=c1c2cc([N+](=O)[O-])ccc2nc([C@@H]2CCCN2)n1-c1ccccc1` [Example 5, (S)-6-nitro-3-phenyl-2-(pyrrolidin-2-yl) quinazolin-4 (3H)-one], the concentration giving a half-maximal response (EC50) in the experiment on VEEV TC83 and in the experiment with WEEV California was 151 to 500 nM throughout.

With `COc1ccc(-c2cc(C#N)cc3c(=O)n(-c4ccc(OC)c(F)c4)c(C4CCCN4)nc23)cc1F` (stereo not shown) [Example 149, 3,8-Bis(3-fluoro-4-methoxyphenyl)-4-oxo-2-(pyrrolidin-2-yl)-3,4-dihydroquinazoline-6-carbonitrile], the EC50 in the experiment with VEEV TC83 and in the experiment on WEEV California was 1 to 50 nM in each case.

On to `COc1ccc(-n2c([C@H]3CCCN3)nc3c(-c4ccc(C)nc4)cc([N+](=O)[O-])cc3c2=O)cc1F` [Example 92, (R)-3-(3-fluoro-4-methoxyphenyl)-8-(6-methylpyridin-3-yl)-6-nitro-2-(pyrrolidin-2-yl) quinazolin-4 (3H)-one], for which the half-maximal effective concentration (EC50) with VEEV TC83 and with WEEV California was 1 to 50 nM throughout.

For the compound `O=c1c2cc([N+](=O)[O-])ccc2nc([C@@H]2CCCN2C2CCOCC2)n1-c1ccccc1` [Example 6, (S)-6-nitro-3-phenyl-2-(1-(tetrahydro-2H-pyran-4-yl)pyrrolidin-2-yl)quinazolin-4 (3H)-one], the EC50 in the experiment on VEEV TC83 was 501 to 1000 nM; in the experiment on WEEV California, more than 1000 nM.
